A short description of data set [1]: Selectivity index, ratio of IC50 for rat L6 cells to IC50 for Trypanosoma brucei rhodesiense STIB900. The conditions noted are these: L6 cells versus Trypanosoma brucei rhodesiense STIB900, read-out: Ratio IC50. Type of data set: toxicity, cell-based.
A short description of data set [2]: Selectivity index, ratio of IC50 for rat L6 cells to IC50 for Plasmodium falciparum K1. The conditions noted are these: L6 cells versus Plasmodium falciparum K1, read-out: Ratio IC50. It is filed as toxicity, cell-based.
Another data set relates to L6. The data set can be described thus: Cytotoxicity against rat L6 cells. Type of data set: cell-based.
Another data set deals with Plasmodium falciparum. The data set can be described thus: Antiplasmodial activity against Plasmodium falciparum K1. Type of data set: functional, organism-based.
Data set [3] deals with Trypanosoma brucei rhodesiense. The data set can be described thus: Antitrypanosomal activity against Trypanosoma brucei rhodesiense STIB900. Type of data set: functional, organism-based.

Consider `CC1=CC(=O)[C@@]23CC[C@@H]4C(C)(C)CCC[C@@]45C[C@]24[C@@H]1C[C@H]1C(C)(C)OC(=C(C(C)C)C3=O)[C@]14O5` [PEROVSKONE B], for which the results for the selectivity ratio in data set [1] and in data set [2] were 0.78 and 69.6, respectively. For the same compound, the concentration for half-maximal inhibition (IC50) was 5.77 µM with L6, 0.18 µM with Plasmodium falciparum and 15.9 µM in data set [3].

Regarding `C=CC1=C[C@@H]2[C@@H]3[C@]4(C(C)C)C(=O)[C@]5(CC[C@H]6C(C)(C)CCC[C@]67C[C@]25[C@@](OC[C@@]3(C)O)(O7)C4=O)C1` [SALVADIONE C], the values for the selectivity ratio in data set [1] and in data set [2] were 43.2 and 86.6, respectively. In addition, the 50% inhibitory concentration (IC50) in the data set on L6 was over 90 µM; in the data set with Plasmodium falciparum it was 1.43 µM; in data set [3], 4.33 µM.

Source of the values: ChEMBL document CHEMBL1926585, “Triterpenoids with rare carbon skeletons from Salvia hydrangea: antiprotozoal activity and absolute configurations” (J Nat Prod, 2011).
